Data from US7727949B2, “Cleaning agent for thermostatic chambers” (Wako Pure Chemical Industries, Ltd., priority 2005, dated 2010).

Experiments:
Assay type in all cases: cell-based
[1] = test system: Staphylococcus aureus (NBRC12732); test: Study of germicidal activity of agents in the presence of proteins; design: key to growth of the microorganism S.a: a case where growth of the microorganism on the surface of the medium was recognized is shown by +; a case where growth of the microorganism on the surface of the medium was not recognized is shown by −; conditions: for growth of the microorganism S.a: agent 50 μg/mL
Procedure: (§1) Didecyldimethylammonium adipate (DDAA), N-bis(3-aminopropyl)dodecylamine (TAA) and benzalkonium chloride were respectively prepared such that a concentration thereof is 1 w/w %.
(§2) GOT solution: GOT Substrate-Enzyme solution and GOT•L2α-KG solution which were components of L type Wako GOT•J2 kit (produced by Wako Pure Chemical Industries, Ltd.) were prepared with distilled water so as to become a 0.1 w/w % aqueous solution.
(§3) GPT solution: GOT Substrate-Enzyme solution and GOT•L2α-KG solution which were components of L type Wako GPT•J2 kit (produced by Wako Pure Chemical Industries, Ltd.) were prepared with distilled water so as to become a 0.1 w/w % aqueous solution.
(§4) Serum: Control Serum II Wako (produced by Wako Pure Chemical Industries, Ltd.) was prepared with distilled water so as to become a 0.1 w/w % aqueous solution.
(§5) i) The individual test microorganism, which was preliminarily cultured in bouillon medium in advance until 1×10^8 microorganisms/mL, were diluted with sterilized physiological saline for 100 times (to 1×10^6 microorganisms/mL) to obtain a solution of test microorganisms. ii) Into a 20 mL test tube made of glass which was preliminarily sterilized by dry-heat sterilization, the agent aqueous solution, the reagent solution and the solution of test microorganisms as prepared in the above described i) were added such that a final concentration of the agent become 50 μg/mL, a final concentration of the reagent become 100 μg/mL, and the number of test microorganisms become 1×10^5 microorganisms/mL, respectively, when a total volume thereof is prepared to be 10 mL. And then, the tube was sufficiently stirred. iii) After a lapse of predetermined times (5 min, 10 min, and 15 min), the solution as obtained in the above described ii) was smeared with a platinum loop on the surface of the nutrient agar plate medium preliminarily having been prepared, and the medium was cultured at 35° C.±2° C. for 24 hours. iv) After the cultivation, confirming the presence or not of the growth of the microorganisms on the surface of the medium was conducted. (3) Result
(§6) In Table 3, a case where growth of the microorganism on the surface of the medium was recognized is shown by +, and a case where growth of the microorganism on the surface of the medium was not recognized is shown by −, respectively.

[2] = test system: Bacillus subtilis (NBRC13719); test: Study of antimicrobial activity in the presence of proteins (MIC)
Procedure: (§7) GOT (glutamic-oxaloacetic transaminase) solution: GOT Substrate-Enzyme solution and GOT-2α•KG solution which were components of L type Wako GOT•J2 kit (produced by Wako Pure Chemical Industries, Ltd.) were prepared with distilled water so as to become a 0.2 w/w % aqueous solution.
(§8) GPT (glutamic-pyruvic transaminase) solution: GOT Substrate-Enzyme solution and GOT•2α-KG solution which were components of L type Wako GPT•J2 kit (produced by Wako Pure Chemical Industries, Ltd.) were prepared with distilled water so as to become a 0.2 w/w % aqueous solution.
(§9) Serum: Control Serum II Wako (produced by Wako Pure Chemical Industries, Ltd.) was prepared with distilled water so as to become a 0.2 w/w % aqueous solution with distilled water.
(§10) In a sterilized petri dish having a diameter of 90 mm, an aqueous solution which was obtained by diluting each of agents with distilled water was added such that a concentration of the agent become each predetermined concentrations when the solution is prepared to a total volume of 20 mL, and the agent aqueous solution and a reagent solution such that a final concentration of each of components (GOT, GPT, and serum) in the reagent become 100 μg/mL when the solution is prepared to a total volume of 20 mL. And then, sterilized water was added into the petri dish such that a total volume of sterilized water and the agent aqueous solution become 2 mL. Further, 18 mL of nutrient agar medium, which was sterilized with high pressure steam and preserved at 50° C.±2° C., was added into the petri dish, and it was solidified to obtain an agar plate medium. Furthermore, as a reference, agar plate medium obtained by using pure water instead of the agent solution was also prepared.
(§11) The individual test microorganisms, which was preliminarily cultured in bouillon medium in advance until 1×10^8 microorganisms/mL, was diluted with sterilized physiological saline for 100 times (to 1×10^6 microorganisms/mL). Next, the prepared solution of the test microorganisms was smeared with a platinum loop on the surface of the agar plate medium prepared in (2), and the medium was cultured at 35° C.±2° C. for 24 hours.
(§12) After the cultivation, confirming the presence or not of the growth of the microorganism on the surface of the medium was conducted, a minimum concentration of the agent, where growth of the microorganisms cannot be recognized, was determine as the minimum inhibitory concentration (MIC, μg/mL) of the agent.

[3] = test system: Staphylococcus aureus (NBRC12732); test: as above
Procedure: as §7, §8, §9, §10, §11, §12

[4] = test system: Escherichia coli (NBRC3972); test: as above
Procedure: as §7, §8, §9, §10, §11, §12

[5] = test system: Pseudonas aeruginosa (NBRC12689); test: as above
Procedure: as §7, §8, §9, §10, §11, §12

[6] = test system: Pseudonas aeruginosa (NBRC12689); test: Study of germicidal activity of agents in the presence of proteins; design: key to growth of the microorganism P.a: a case where growth of the microorganism on the surface of the medium was recognized is shown by +; a case where growth of the microorganism on the surface of the medium was not recognized is shown by −; conditions: for growth of the microorganism P.a: agent 50 μg/mL
Procedure: as §1, §2, §3, §4, §5, §6

[7] = data are not shown, effect does not change in the presence of protein

Compound | growth of the microorganism S.a ([1]; GOT, 5 min) | growth of the microorganism S.a ([1]; GOT, 10 min) | growth of the microorganism S.a ([1]; GOT, 15 min) | growth of the microorganism S.a ([1]; GPT, 5 min) | growth of the microorganism S.a ([1]; GPT, 10 min) | growth of the microorganism S.a ([1]; GPT, 15 min) | growth of the microorganism S.a ([1]; Serum, 5 min) | growth of the microorganism S.a ([1]; Serum, 10 min) | growth of the microorganism S.a ([1]; Serum, 15 min) | Minimum Inhibitory Concentration B.s ([2]; GOT 100 μg/mL) | Minimum Inhibitory Concentration B.s ([2]; GPT 100 μg/mL) | Minimum Inhibitory Concentration B.s ([2]; Pure Water) | Minimum Inhibitory Concentration B.s ([2]; Serum 100 μg/mL) | Minimum Inhibitory Concentration S.a ([3]; GOT 100 μg/mL) | Minimum Inhibitory Concentration S.a ([3]; GPT 100 μg/mL) | Minimum Inhibitory Concentration S.a ([3]; Pure Water) | Minimum Inhibitory Concentration S.a ([3]; Serum 100 μg/mL) | Minimum Inhibitory Concentration E.c ([4]; GOT 100 μg/mL) | Minimum Inhibitory Concentration E.c ([4]; GPT 100 μg/mL) | Minimum Inhibitory Concentration E.c ([4]; Pure Water) | other results
CCCCCCCCCCCCN(CCCN)CCCN [TAA, N-bis(3-aminopropyl)dodecylamine] | − | − | − | − | − | − | − | − | − | 10 µg/mL | 10 µg/mL | 10 µg/mL | 10 µg/mL | 10 µg/mL | 10 µg/mL | 10 µg/mL | 10 µg/mL | 50 µg/mL | 50 µg/mL | 50 µg/mL | germicidal activity to Staphylococcus aureus [1, 7]: high germicidal activity; Minimum Inhibitory Concentration E.c ([4]; Serum 100 μg/mL): 50 µg/mL; Minimum Inhibitory Concentration P.a ([5]; GOT 100 μg/mL): 100 µg/mL; Minimum Inhibitory Concentration P.a ([5]; GPT 100 μg/mL): 100 µg/mL; Minimum Inhibitory Concentration P.a ([5]; Pure Water): 10 µg/mL; Minimum Inhibitory Concentration P.a ([5]; Serum 100 μg/mL): 100 µg/mL; growth of the microorganism P.a ([6]; GOT, 5 min): −; growth of the microorganism P.a ([6]; GOT, 10 min): −; growth of the microorganism P.a ([6]; GOT, 15 min): −; growth of the microorganism P.a ([6]; GPT, 5 min): −; growth of the microorganism P.a ([6]; GPT, 10 min): −; growth of the microorganism P.a ([6]; GPT, 15 min): −; growth of the microorganism P.a ([6]; Serum, 5 min): −; growth of the microorganism P.a ([6]; Serum, 10 min): −; growth of the microorganism P.a ([6]; Serum, 15 min): −; germicidal activity to Pseudonas aeruginous [6, 7]: high germicidal activity
Didecyldimethylammonium adipate [DDAA] | − | − | − | − | − | − | − | − | − | <1 µg/mL | <1 µg/mL | <1 µg/mL | <1 µg/mL | <1 µg/mL | <1 µg/mL | <1 µg/mL | <1 µg/mL | 50 µg/mL | 50 µg/mL | 50 µg/mL | Minimum Inhibitory Concentration E.c ([4]; Serum 100 μg/mL): 50 µg/mL; Minimum Inhibitory Concentration P.a ([5]; GOT 100 μg/mL): 200 µg/mL; Minimum Inhibitory Concentration P.a ([5]; GPT 100 μg/mL): 200 µg/mL; Minimum Inhibitory Concentration P.a ([5]; Pure Water): 200 µg/mL; Minimum Inhibitory Concentration P.a ([5]; Serum 100 μg/mL): 200 µg/mL; growth of the microorganism P.a ([6]; GOT, 5 min): −; growth of the microorganism P.a ([6]; GOT, 10 min): −; growth of the microorganism P.a ([6]; GOT, 15 min): −; growth of the microorganism P.a ([6]; GPT, 5 min): −; growth of the microorganism P.a ([6]; GPT, 10 min): −; growth of the microorganism P.a ([6]; GPT, 15 min): −; growth of the microorganism P.a ([6]; Serum, 5 min): −; growth of the microorganism P.a ([6]; Serum, 10 min): −; growth of the microorganism P.a ([6]; Serum, 15 min): −
benzalkonium chloride [BC, reference compound] | − | − | − | − | − | − | + | + | + | 10 µg/mL | 10 µg/mL | 10 µg/mL | 10 µg/mL | <1 µg/mL | 50 µg/mL | <1 µg/mL | <1 µg/mL | 200 µg/mL | 200 µg/mL | 100 µg/mL | Minimum Inhibitory Concentration E.c ([4]; Serum 100 μg/mL): 200 µg/mL; Minimum Inhibitory Concentration P.a ([5]; GOT 100 μg/mL): >200 µg/mL; Minimum Inhibitory Concentration P.a ([5]; GPT 100 μg/mL): >200 µg/mL; Minimum Inhibitory Concentration P.a ([5]; Pure Water): >200 µg/mL; Minimum Inhibitory Concentration P.a ([5]; Serum 100 μg/mL): >200 µg/mL; growth of the microorganism P.a ([6]; GOT, 5 min): +; growth of the microorganism P.a ([6]; GOT, 10 min): +; growth of the microorganism P.a ([6]; GOT, 15 min): +; growth of the microorganism P.a ([6]; GPT, 5 min): +; growth of the microorganism P.a ([6]; GPT, 10 min): +; growth of the microorganism P.a ([6]; GPT, 15 min): +; growth of the microorganism P.a ([6]; Serum, 5 min): +; growth of the microorganism P.a ([6]; Serum, 10 min): +; growth of the microorganism P.a ([6]; Serum, 15 min): +
